2 compounds from patent US11364275B2, “Linear lipopeptide paenipeptins and methods of using the same” (priority 2017, dated 2022) can be followed below.

Test [1] has as its system K. pneumoniae FDA-CDC AR 0097. Put plainly: Time-kill kinetics in tryptic soy broth, alone and combined. The test is classed as cell-based, Klebsiella pneumoniae. The following applies: K. pneumoniae AR 0097; TSB; analogues 4 μg/ml, antibiotics 1 μg/ml. As for the experimental part:
Bacterial viable counts were determined at 0, 2, 4, 6, and 24 h after antimicrobial treatment. Bacterial surviving counts at 24 h endpoints were subjected to analysis of variance (ANOVA) followed by Tukey's honest significant difference (HSD) tests using SPSS Statistics (version 24; SPSS, Inc., Chicago, Ill., USA).

For test [2], the system named is A. baumannii FDA-CDC AR 0037. Put plainly: microbe, parasite or virus in culture. The following applies: Acinetobacter baumannii, read-out: MIC alone.
Test [3] concerns A. baumannii FDA-CDC AR 0052. The test is described as follows: microbe, parasite or virus in culture. The settings on record: Acinetobacter baumannii, read-out: MIC alone.
The subject of test [4] is A. baumannii FDA-CDC AR 0063. The test is described as follows: microbe, parasite or virus in culture. The settings on record: Acinetobacter baumannii, read-out: MIC alone.
Test [5] relates to A. baumannii FDA-CDC AR 0070. Put plainly: microbe, parasite or virus in culture. The settings on record: Acinetobacter baumannii, read-out: MIC alone.
Test [6] has as its system A. baumannii FDA-CDC AR 0083. Put plainly: microbe, parasite or virus in culture. The following applies: Acinetobacter baumannii, read-out: MIC alone.
Test [7] relates to K. pneumoniae FDA-CDC AR 0034. Put plainly: microbe, parasite or virus in culture. The settings on record: Klebsiella pneumoniae, read-out: MIC alone.
Test [8] concerns K. pneumoniae FDA-CDC AR 0044. Put plainly: microbe, parasite or virus in culture. The settings on record: Klebsiella pneumoniae, read-out: MIC alone.
Test [9] concerns K. pneumoniae FDA-CDC AR 0068. Put plainly: microbe, parasite or virus in culture. The following applies: Klebsiella pneumoniae, read-out: MIC alone.
In test [10] the test system is K. pneumoniae FDA-CDC AR 0080. The test is described as follows: microbe, parasite or virus in culture. The settings on record: Klebsiella pneumoniae, read-out: MIC alone.
Test [11] deals with K. pneumoniae FDA-CDC AR 0097. The test is described as follows: microbe, parasite or virus in culture. The settings on record: Klebsiella pneumoniae, read-out: MIC alone.
Test [12] deals with A. baumannii FDA-CDC AR 0037.
In test [13] the test system is A. baumannii FDA-CDC AR 0052.
In test [14] the test system is A. baumannii FDA-CDC AR 0063.
In test [15] the test system is A. baumannii FDA-CDC AR 0070.
Test [16] concerns A. baumannii FDA-CDC AR 0083.
Test [17] has as its system K. pneumoniae FDA-CDC AR 0034.
In test [18] the test system is K. pneumoniae FDA-CDC AR 0044.
Test [19] concerns K. pneumoniae FDA-CDC AR 0068.
Test [20] deals with K. pneumoniae FDA-CDC AR 0080.
Test [21] has as its system K. pneumoniae FDA-CDC AR 0097.
The test system of test [22] is 10 carbapenem-resistant strains. The settings on record: all 10 tested strains.

Values after ≈ are worked out from the molar mass of the structure shown. Where a SMILES comes first, the peptide text is derived from it. Bridges are numbered along the chain shown (N, C = ends). [ ]: non-standard residue; d: D form. Dab = NCC[C@H](N)C(=O)O

In the case of `CC[C@H]1OC(=O)[C@H](C)[C@@H](O[C@H]2C[C@@](C)(OC)[C@@H](O)[C@H](C)O2)[C@H](C)[C@@H](O[C@@H]2O[C@H](C)C[C@H](N(C)C)[C@H]2O)[C@](C)(OC)C[C@@H](C)C(=O)[C@H](C)[C@@H](O)[C@]1(C)O` [clarithromycin], the “bactericidal activity, single agent (in words)” value in test [1] is “not bactericidal”. For the same compound, the MIC in test [2] was 16 µg/mL (≈ 21.4 µM); in test [3] it was 4 µg/mL (≈ 5.35 µM); in test [4] it was 16 to 32 µg/mL (≈ 21.4 to 42.8 µM); in test [5], 2 to 4 µg/mL (≈ 2.67 to 5.35 µM); in [6], above 32 µg/mL; in test [7], above 32 µg/mL. The MIC in test [8], in test [9], in [10] and in [11] was above 32 µg/mL each time.
Regarding `CC(C)C[C@@H]1NC(=O)[C@@H](Cc2ccccc2)NC(=O)[C@H](CCN)NC(=O)[C@@H](NC(=O)[C@H](CCN)NC(=O)[C@@H](N)[C@@H](C)O)CCNC(=O)[C@H]([C@@H](C)O)NC(=O)[C@H](CCN)NC(=O)[C@H](CCN)NC1=O` [polymyxin B nonapeptide, reference compound] (H-T[Dab][Dab][Dab][dF]L[Dab][Dab]T; lactam 3-C (inferred); N-terminus assumed), the “MIC of clarithromycin at the presence of PMBN or paenipeptin analogue at 4 μg/ml” value is listed as 0.125-0.25 μg/ml in test [12] (A. baumannii AR 0037); 0.0313-0.0625 μg/ml in test [13] (A. baumannii AR 0052); 0.5-1 μg/ml in [14] (A. baumannii AR 0063); 0.25-0.5 μg/ml in test [15] (A. baumannii AR 0070); 32 μg/ml in test [16] (A. baumannii AR 0083); above 32 μg/ml in test [17] (K. pneumoniae AR 0034). Besides, the “MIC of clarithromycin at the presence of PMBN or paenipeptin analogue at 4 μg/ml” value in [18] (K. pneumoniae AR 0044) was 4 μg/ml; in [19] (K. pneumoniae AR 0068), above 32 μg/ml; in test [20] (K. pneumoniae AR 0080), 4 μg/ml; in [21] (K. pneumoniae AR 0097) it was 32 μg/ml. Further, the “MIC of rifampicin at the presence of PMBN or paenipeptin analogue at 4 μg/ml” value in [12] (A. baumannii AR 0037) is reported as 0.25 μg/ml; in test [13] (A. baumannii AR 0052) it was 0.0625-0.125 μg/ml; in test [14] (A. baumannii AR 0063) it was 0.125 μg/ml; in [15] (A. baumannii AR 0070) it was 0.0625-0.125 μg/ml; in test [16] (A. baumannii AR 0083) it was 8 μg/ml; in test [17] (K. pneumoniae AR 0034), 1 μg/ml. Besides, the “MIC of rifampicin at the presence of PMBN or paenipeptin analogue at 4 μg/ml” value is recorded as 2 μg/ml in test [18] (K. pneumoniae AR 0044), 2-8 μg/ml in test [19] (K. pneumoniae AR 0068), above 32 μg/ml in test [20] (K. pneumoniae AR 0080) and 16 μg/ml in [21] (K. pneumoniae AR 0097). Moreover, the MIC alone in [12] (FDA-CDC AR 0037), in test [13] (FDA-CDC AR 0052), in test [14] (FDA-CDC AR 0063), in [15] (FDA-CDC AR 0070), in test [16] (FDA-CDC AR 0083) and in test [17] (FDA-CDC AR 0034) was above 32 µg/mL in each case. Further, the MIC alone in [18] (FDA-CDC AR 0044), in [19] (FDA-CDC AR 0068), in [20] (FDA-CDC AR 0080), in test [21] (FDA-CDC AR 0097) and in test [22] was above 32 µg/mL throughout.
